This passage reports IC50 results from US10508077B2 (FORMA Therapeutics, Inc., priority 2015, dated 2019).

The structures appear in SMILES notation.

The experiment concerns the target T1, Recombinant N-terminal GST tag full-length human HDAC8 (Homo sapiens, UniProt Q9BY41).
T1 construct: Recombinant N-terminal GST tag full-length human HDAC8; purchased SignalChem H90-30G-1000; host or cells: Sf9 insect cells (baculovirus)
T1 sequence (Q9BY41 1-377): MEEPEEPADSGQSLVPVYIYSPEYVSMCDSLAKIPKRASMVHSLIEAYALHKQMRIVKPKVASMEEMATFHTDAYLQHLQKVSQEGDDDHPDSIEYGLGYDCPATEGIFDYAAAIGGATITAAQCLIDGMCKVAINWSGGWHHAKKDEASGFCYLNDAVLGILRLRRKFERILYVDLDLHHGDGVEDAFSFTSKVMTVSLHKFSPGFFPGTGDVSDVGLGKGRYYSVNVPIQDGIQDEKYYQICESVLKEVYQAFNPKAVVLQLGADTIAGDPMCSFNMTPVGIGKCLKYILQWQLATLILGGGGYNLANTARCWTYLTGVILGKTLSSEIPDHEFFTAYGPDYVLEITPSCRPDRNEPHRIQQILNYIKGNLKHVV
Description: HDAC8 probe binding assay, time resolved fluorescence (TRF). The note with it: fluorescein labeled pan-HDAC inhibitor probe, 16 hours incubation, compounds listed under IC50 range headings. The method, then:
The HDAC8 probe binding assay was performed using a time resolved fluorescence (TRF) assay format. Recombinant N-terminal GST tag full-length human HDAC8 was expressed and purified from baculovirus in Sf9 insect cells (SignalChem, #H90-30G-1000), Each assay was performed in 1536 black well microplates (Corning, #3936) in a final volume of 4 μL in assay buffer containing 50 mM HEPES (pH 7.5), 50 mM KCl, 50 mM NaCl, 0.5 mM GSH (L-Glutathione reduced, Sigma #G4251), 0.03% BGG (0.22 μM filtered, Sigma, #G7516-25G), and 0.01% Triton X-100 (Sigma, #T9284-10L). 20 nL of 10-point, 3-fold serial dilution in DMSO was pre-dispensed into respective wells of 1536 assay plates for a final test concentration range of 25 μM to 1.3 nM respectively. The final concentration in the assay of HDAC8 and probe (a fluorescein labeled pan-HDAC inhibitor) was 2.5 nM and 1.5 nM respectively. 2 μL of 2× probe and 2× anti-GST Terbium (Cisbio, #61GSTXLB) was added to assay plates followed by 2 μL of 2× HDAC8. Plates were incubated for 16 hours at room temperature before time resolved fluorescence was read on the Envision (Excitation at 340 nm, and Emission at 485 nm and 535 nm, Perkin Elmer).
Data from HDAC8 Assays were reported as percent inhibition (inh) compared with control wells based on the following equation: % inh=1−((FLU−AveLow)/(AveHigh−AveLow)) where FLU=measured time resolved fluorescence. AveLow=average time resolved fluorescence of no enzyme control (n=32). AveHigh=average time resolved fluorescence of DMSO control (n=32). IC50 values were determined by curve fitting of the standard 4 parameter logistic fitting algorithm included in the Activity Base software package: IDBS XE Designer Model205. Data is fitted using the Levenburg Marquardt algorithm.

Turning to `COc1cc(F)ccc1Oc1ccccc1C(=O)Nc1ccccc1/C=C/C(=O)NO` [Example I-546, (E)-2-(4-fluoro-2-methoxyphenoxy)-N-(2-(3-(hydroxyamino)-3-oxoprop-1-en-1-yl)phenyl)benzamide], the half-maximal inhibitory concentration (IC50) is not above 1000 nM.

Take `COc1cccc(Oc2ccccc2C(=O)Nc2ccccc2/C=C/C(=O)NO)c1` [Example I-552, N-{2-[(1E)-2-(hydroxycarbamoyl)eth-1-en-1-yl]phenyl}-2-(3-methoxyphenoxy)benzamide]: the IC50 is not above 1000 nM.

`O=C(/C=C/c1ccccc1N1CCN(Cc2ccccc2)CC1=O)NO` [Example I-495, (E)-3-(2-(4-benzyl-2-oxopiperazin-1-yl)phenyl)-N-hydroxyacrylamide]: the IC50 was not above 1000 nM.

With `O=C(/C=C/c1ccccc1N1CCCC12CN(C(=O)Cc1ccccc1)C2)NO` [Example I-561, (E)-N-hydroxy-3-(2-(2-(2-phenylacetyl)-2,5-diazaspiro[3.4]octan-5-yl)phenyl)acrylamide], the IC50 is not above 1000 nM.

`O=C(/C=C/c1ccccc1N1CCN(c2ccc(OC(F)(F)F)cc2)CC1=O)NO` [Example I-503, (E)-N-hydroxy-3-(2-(2-oxo-4-(4-(trifluoromethoxy)phenyl)piperazin-1-yl)phenyl)acrylamide]: the IC50 was not above 1000 nM.

As to `CC1(C(=O)N2CC3(CCCN3c3ccccc3/C=C/C(=O)NO)C2)CCCCC1` [Example I-568, (E)-N-hydroxy-3-(2-(2-(1-methylcyclohexane-1-carbonyl)-2,5-diazaspiro[3.4]octan-5-yl)phenyl)acrylamide], the half-inhibitory concentration (IC50) was not above 1000 nM.

On to `O=C(/C=C/c1ccccc1N1CCCC12CN(C(=O)CC(F)(F)F)C2)NO` [Example I-566, (E)-N-hydroxy-3-(2-(2-(3,3,3-trifluoropropanoyl)-2,5-diazaspiro[3.4]octan-5-yl)phenyl)acrylamide], for which the IC50 was not above 1000 nM.

Turning to `Cn1cc(Oc2ccccc2C(=O)Nc2ccc(F)cc2/C=C/C(=O)NO)cn1` [Example I-558, N-{4-fluoro-2-[(1E)-2-(hydroxycarbamoyl)eth-1-en-1-yl]phenyl}-2-[(1-methyl-1H-pyrazol-4-yl)oxy]benzamide], the half-inhibitory concentration (IC50) is not above 1000 nM.

In the case of `CC(C)(C)C(=O)N1CC2(CCCN2c2ccccc2/C=C/C(=O)NO)C1` [Example I-569], the IC50 is not above 1000 nM.

On to `COc1cnccc1Oc1ccccc1C(=O)Nc1ccccc1/C=C/C(=O)NO` [Example I-553, N-{2-[(1E)-2-(hydroxycarbamoyl)eth-1-en-1-yl]phenyl}-2-[(3-methoxypyridin-4-yl)oxy]benzamide], for which the 50% inhibitory concentration (IC50) was not above 1000 nM.

In the case of `O=C(/C=C/c1cc(Cl)ccc1NC(=O)c1ccccc1Oc1ccc(F)cc1)NO` [Example I-549, N-{4-chloro-2-[(1E)-2-(hydroxycarbamoyl)eth-1-en-1-yl]phenyl}-2-(4-fluorophenoxy)benzamide], the IC50 was not above 1000 nM.

`O=C(/C=C/c1cc(Cl)ccc1NC(=O)c1cccnc1Oc1ccccc1)NO` [Example I-570, N-{4-chloro-2-[(1E)-2-(hydroxycarbamoyl)eth-1-en-1-yl]phenyl}-2-phenoxypyridine-3-carboxamide]: the half-maximal inhibitory concentration (IC50) was not above 1000 nM.

For `O=C(/C=C/c1ccccc1N1CCCC12CN(C(=O)Cc1ccc(F)cc1)C2)NO` [Example I-562], the concentration for half-maximal inhibition (IC50) is not above 1000 nM.

For the compound `O=C(/C=C/c1ccccc1N1CCCC12CN(C(=O)c1ccc(F)cc1)C2)NO` [Example I-554, (E)-3-(2-(2-(4-fluorobenzoyl)-2,5-diazaspiro[3.4]octan-5-yl)phenyl)-N-hydroxyacrylamide], the IC50 was in the range of 1000 to 100000 nM.

Consider `O=C(/C=C/c1ccccc1N1CCCC12CN(C(=O)C1CCCCC1)C2)NO` [Example I-567, (E)-3-(2-(2-(cyclohexanecarbonyl)-2,5-diazaspiro[3.4]octan-5-yl)phenyl)-N-hydroxyacrylamide], for which the IC50 lay within 1000 to 100000 nM.

As to `O=C(/C=C/c1cc(Cl)ccc1NC(=O)c1cccnc1Oc1ccc(Cl)cc1)NO` [Example I-572, N-{4-chloro-2-[(1E)-2-(hydroxycarbamoyl)eth-1-en-1-yl]phenyl}-2-(4-chlorophenoxy)pyridine-3-carboxamide], the IC50 was not above 1000 nM.

Consider `O=C(/C=C/c1ccccc1N1CCCC12CN(C(=O)C1CCCC1)C2)NO` [Example I-565, (E)-3-(2-(2-(cyclopentanecarbonyl)-2,5-diazaspiro[3.4]octan-5-yl)phenyl)-N-hydroxyacrylamide], for which the IC50 was not above 1000 nM.

For `Cc1ccc(Oc2ccccc2C(=O)Nc2ccc(Cl)cc2/C=C/C(=O)NO)cn1` [Example I-560, N-{4-chloro-2-[(1E)-2-(hydroxycarbamoyl)eth-1-en-1-yl]phenyl}-2-[(6-methylpyridin-3-yl)oxy]benzamide], the half-maximal inhibitory concentration (IC50) was not above 1000 nM.

With `O=C(/C=C/c1ccccc1N1CCC2(CCCN2C(=O)Cc2ccccc2)C1)NO` (stereo not shown) [Example I-579, (E)-N-hydroxy-3-(2-(1-(2-phenylacetyl)-1,7-diazaspiro[4.4]nonan-7-yl)phenyl)acrylamide], the half-maximal inhibitory concentration (IC50) lay in the range of 1000 to 100000 nM.

Take `O=C(/C=C/c1ccccc1N1CCN(c2ccc(F)cc2)CC1=O)NO` [Example I-504, (E)-3-(2-(4-(4-fluorophenyl)-2-oxopiperazin-1-yl)phenyl)-N-hydroxyacrylamide]: the half-maximal inhibitory concentration (IC50) is not above 1000 nM.

For the compound `O=C(/C=C/c1ccccc1N1CCC2(CCCN2C(=O)CC(F)(F)F)C1)NO` (stereo not shown) [Example I-576, (E)-N-hydroxy-3-(2-(1-(3,3,3-trifluoropropanoyl)-1,7-diazaspiro[4.4]nonan-7-yl)phenyl)acrylamide], the IC50 is not above 1000 nM.

In the case of `O=C(/C=C/c1ccccc1N1CCC2(CCCN2C(=O)c2ccc(F)cc2)C1)NO` (stereo not shown) [Example I-575, (E)-3-(2-(1-(4-fluorobenzoyl)-1,7-diazaspiro[4.4]nonan-7-yl)phenyl)-N-hydroxyacrylamide], the IC50 was not above 1000 nM.

For the compound `Cn1cc(Oc2ccccc2C(=O)Nc2ccccc2/C=C/C(=O)NO)cn1` [Example I-548, N-{2-[(1E)-2-(hydroxycarbamoyl)eth-1-en-1-yl]phenyl}-2-[(1-methyl-1H-pyrazol-4-yl)oxy]benzamide], the concentration for half-maximal inhibition (IC50) is not above 1000 nM.

`COc1ccc(Oc2ccccc2C(=O)Nc2ccccc2/C=C/C(=O)NO)cc1` [Example I-559]: the IC50 is not above 1000 nM.

`O=C(/C=C/c1ccccc1N1CCN(c2ccc(Cl)c(C(F)(F)F)c2)CC1=O)NO` [Example I-582, (E)-3-(2-(4-(4-chloro-3-(trifluoromethyl)phenyl)-2-oxopiperazin-1-yl)phenyl)-N-hydroxyacrylamide]: the IC50 is 1000 to 100000 nM.

With `COc1ccc(F)cc1Oc1ccccc1C(=O)Nc1ccccc1/C=C/C(=O)NO` [Example I-551, 2-(5-fluoro-2-methoxyphenoxy)-N-{2-[(1E)-2-(hydroxycarbamoyl)eth-1-en-1-yl]phenyl}benzamide], the IC50 is not above 1000 nM.

For the compound `O=C(/C=C/c1ccccc1N1CCN(c2ccc(F)cc2)C1=O)NO` [Example I-501, (E)-3-(2-(3-(4-fluorophenyl)-2-oxoimidazolidin-1-yl)phenyl)-N-hydroxyacrylamide], the IC50 was not above 1000 nM.

On to `O=C(/C=C/c1ccc(Cl)cc1NC(=O)c1ccccc1Oc1ccc(F)cc1)NO` [Example I-564, N-{5-chloro-2-[(1E)-2-(hydroxycarbamoyl)eth-1-en-1-yl]phenyl}-2-(4-fluorophenoxy)benzamide], for which the 50% inhibitory concentration (IC50) was not above 1000 nM.
